Molecular target: T1, HPK1 (Homo sapiens, UniProt Q92918)
T1 construct: A HiBiT tag was introduced by CRISPR on the N terminus of HPK1 in Jurkat cells; host or cells: Jurkat cells (ATCC TIB-152), monoclonal line with CRISPR knock-in of HiBiT at the endogenous HPK1 locus
Assay: HPK1 Cellular HiBit Degradation Assay
Format: cell-based
Details: HiBiT HPK1 Jurkat cells, 24 hrs; for DC50: concentration at which 50% of HPK1 was remaining, read-out: DC50 Category; for Dmax: Jurkat, read-out: Dmax Category
Summary of the method: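 Jurkat cells with CRISPR knock-in N-terminal HiBiT-HPK1 were treated with CTMs (11-point, 3.16-fold, 10 uM to 0.1 nM final) for 24 hrs at 37° C. HiBiT lytic luminescence, with parental Jurkat as background and DMSO as 100%, gave % HPK1 remaining; four-parameter fit yielded DC50 and Dmax (100 minus lowest % remaining).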

[1] = maximum degradation vs DMSO vehicle control

T1 sequence (Q92918 whole entry): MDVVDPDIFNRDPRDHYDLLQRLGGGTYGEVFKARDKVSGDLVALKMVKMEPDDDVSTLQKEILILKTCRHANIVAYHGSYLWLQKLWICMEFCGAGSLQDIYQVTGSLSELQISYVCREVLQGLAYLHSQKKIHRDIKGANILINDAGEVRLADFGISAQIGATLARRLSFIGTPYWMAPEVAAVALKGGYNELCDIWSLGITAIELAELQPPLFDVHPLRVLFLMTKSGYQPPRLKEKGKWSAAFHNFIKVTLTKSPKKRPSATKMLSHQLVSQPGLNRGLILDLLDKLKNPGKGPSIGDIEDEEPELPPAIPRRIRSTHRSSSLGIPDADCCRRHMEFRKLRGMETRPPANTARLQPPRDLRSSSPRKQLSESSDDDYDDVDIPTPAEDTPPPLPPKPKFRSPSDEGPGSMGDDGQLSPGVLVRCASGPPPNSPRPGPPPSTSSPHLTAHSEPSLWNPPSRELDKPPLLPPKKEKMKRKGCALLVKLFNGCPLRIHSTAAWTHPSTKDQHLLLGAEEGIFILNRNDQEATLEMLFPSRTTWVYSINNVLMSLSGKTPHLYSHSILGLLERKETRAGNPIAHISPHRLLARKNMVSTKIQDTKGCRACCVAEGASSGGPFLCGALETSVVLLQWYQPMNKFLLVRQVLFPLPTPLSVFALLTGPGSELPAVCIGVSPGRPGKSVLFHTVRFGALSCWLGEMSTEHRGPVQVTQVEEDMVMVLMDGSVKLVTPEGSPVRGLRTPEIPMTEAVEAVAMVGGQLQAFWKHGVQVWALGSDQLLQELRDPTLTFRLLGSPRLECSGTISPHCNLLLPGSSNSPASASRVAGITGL

DC50 [nM]	Dmax [1] [%]	SMILES	Dmax Category [1]
< 100	70 to 85	CC(C)n1cnc2cc(-c3ccc4c(c3)N([C@H]3C[C@@H](N5CCCCC5)C3)C(=O)C43CCN(C(=O)C4(C)CCN(C(=O)[C@H]5CC[C@H](Oc6ccc(C7CCC(=O)NC7=O)cc6)CC5)CC4)CC3)nc(Nc3ccncc3F)c21 (mixture of isomers) [Example 103, (3RS)-3-(4-{[(1R,4R)-4-{4-[(6-{4-[(3-Fluoropyridin-4-yl)amino]-3-(propan-2-yl)-3H-imidazo[4,5-c]pyridin-6-yl}-2-oxo-1-[(1S,3S)-3-(piperidin-1-yl)cyclobutyl]-1,2-dihydrospiro[indole-3,4′-piperidin]-1′-yl)carbonyl]-4-methylpiperidine-1-carbonyl}cyclohexyl]oxy}phenyl)piperidine-2,6-dione]	
< 100	70 to 85	CC(C(=O)N1CCC2(CC1)C(=O)N([C@H]1C[C@@H](N3CCCCC3)C1)c1cc(-c3cc4ncn(C(C)C)c4c(NC4CC4)n3)ccc12)C1CCN(C(=O)C2CCN(c3ccc(C4CCC(=O)NC4=O)cn3)CC2)CC1 (mixture of isomers) [Example 187, (3RS)-3-(6-{4-[4-(1-{6-[4-(cyclopropylamino)-3-(propan-2-yl)-3H-imidazo[4,5-c]pyridin-6-yl]-2-oxo-1-[(1S,3S)-3-(piperidin-1-yl)cyclobutyl]-1,2-dihydrospiro[indole-3,4′-piperidin]-1′-yl}-1-oxopropan-2-yl)piperidine-1-carbonyl]piperidin-1-yl}pyridin-3-yl)piperidine-2,6-dione]	
< 100	70 to 85	CC(C)n1cnc2cc(-c3ccc4c(c3)N([C@H]3C[C@@H](N5CCCCC5)C3)C(=O)C43CCN(C(=O)C4(C)CCN(C(=O)C5CCN(c6ccc(C7CCC(=O)NC7=O)nc6)CC5)CC4)CC3)nc(Nc3ccncc3F)c21 (mixture of isomers) [Example 120, (3RS)-3-[5-(4-{4-[(6-{4-[(3-fluoropyridin-4-yl)amino]-3-(propan-2-yl)-3H-imidazo[4,5-c]pyridin-6-yl}-2-oxo-1-[(1S,3S)-3-(piperidin-1-yl)cyclobutyl]-1,2-dihydrospiro[indole-3,4′-piperidin]-1′-yl)carbonyl]-4-methylpiperidine-1-carbonyl}piperidin-1-yl)pyridin-2-yl]piperidine-2,6-dione]	
< 100	70 to 85	CC(C)n1cnc2cc(-c3ccc4c(c3)N([C@H]3C[C@@H](N5CCCCC5)C3)C(=O)C43CCN(C(=O)[C@@H]4CCN(C(=O)C5CCN(c6ccc(C7CCC(=O)NC7=O)cc6)CC5)C4)CC3)nc(NC3CC3)c21 (mixture of isomers) [Example 232, (3RS)-3-(4-{4-[(3R)-3-({6-[4-(cyclopropylamino)-3-(propan-2-yl)-3H-imidazo[4,5-c]pyridin-6-yl]-2-oxo-1-[(1S,3S)-3-(piperidin-1-yl)cyclobutyl]-1,2-dihydrospiro[indole-3,4′-piperidin]-1′-yl}carbonyl)pyrrolidine-1-carbonyl]piperidin-1-yl}phenyl)piperidine-2,6-dione]	
< 100	70 to 85	CC(C)n1cnc2cc(-c3ccc4c(c3)N([C@H]3C[C@@H](N5CCCCC5)C3)C(=O)C43CCN(C(=O)[C@]4(C)CCN(C(=O)C5CCN(c6ccc([C@@H]7CCC(=O)NC7=O)cc6)CC5)C4)CC3)nc(NC3CC3)c21 (racemic) [Example 244, (3RS)-3-(4-{4-[(3R)-3-({6-[4-(cyclopropylamino)-3-(propan-2-yl)-3H-imidazo[4,5-c]pyridin-6-yl]-2-oxo-1-[(1S,3S)-3-(piperidin-1-yl)cyclobutyl]-1,2-dihydrospiro[indole-3,4′-piperidin]-1′-yl}carbonyl)-3-methylpyrrolidine-1-carbonyl]piperidin-1-yl}phenyl)piperidine-2,6-dione]	
< 100	70 to 85	CC(C)n1cnc2cc(-c3ccc4c(c3)N([C@H]3C[C@@H](N5CCCCC5)C3)C(=O)C43CCN(C(=O)C4CCN(C(=O)[C@H]5CC[C@H](Oc6ccc(C7CCC(=O)NC7=O)cc6)CC5)CC4)CC3)nc(Nc3ccccc3F)c21 (mixture of isomers) [Example 60, (3RS)-3-(4-{[(1R,4R)-4-{4-[(6-{4-[(2-fluorophenyl)amino]-3-(propan-2-yl)-3H-imidazo[4,5-c]pyridin-6-yl}-2-oxo-1-[(1S,3S)-3-(piperidin-1-yl)cyclobutyl]-1,2-dihydrospiro[indole-3,4′-piperidin]-1′-yl)carbonyl]piperidine-1-carbonyl}cyclohexyl]oxy}phenyl)piperidine-2,6-dione]	
< 100	70 to 85	CC(C)n1cnc2cc(-c3ccc4c(c3)N([C@H]3C[C@@H](N5CCCCC5)C3)C(=O)C43CCN(C(=O)[C@@H]4CCCN(C(=O)[C@H]5CC[C@H](Oc6ccc(C7CCC(=O)NC7=O)cc6)CC5)C4)CC3)nc(NC3CC3)c21 (mixture of isomers) [Example 234, (3RS)-3-(4-{[(1R,4R)-4-[(3R)-3-({6-[4-(cyclopropylamino)-3-(propan-2-yl)-3H-imidazo[4,5-c]pyridin-6-yl]-2-oxo-1-[(1S,3S)-3-(piperidin-1-yl)cyclobutyl]-1,2-dihydrospiro[indole-3,4′-piperidin]-1′-yl}carbonyl)piperidine-1-carbonyl]cyclohexyl]oxy}phenyl)piperidine-2,6-dione]	
< 100	> 85	CC(C)n1cnc2cc(-c3ccc4c(c3)N([C@H]3C[C@@H](N5CCCCC5)C3)C(=O)C43CCN(C(=O)C4(CF)CCN(C(=O)C5CCN(c6ccc(C7CCC(=O)NC7=O)cn6)CC5)CC4)CC3)nc(NC3CC3)c21 (mixture of isomers) [Example 278]	
< 100	> 85	CC(C)n1cnc2cc(-c3ccc4c(c3)N([C@H]3C[C@@H](N5CCCCC5)C3)C(=O)C43CCN(C(=O)C4C5CN(C(=O)C6CCN(c7ccc(C8CCC(=O)NC8=O)cn7)CC6)CC54)CC3)nc(Nc3ccccc3F)c21 (mixture of isomers) [Example 39, (3RS)-3-[6-(4-{6-[(6-{4-[(2-fluorophenyl)amino]-3-(propan-2-yl)-3H-imidazo[4,5-c]pyridin-6-yl}-2-oxo-1-[(1S,3S)-3-(piperidin-1-yl)cyclobutyl]-1,2-dihydrospiro[indole-3,4′-piperidin]-1′-yl)carbonyl]-3-azabicyclo[3.1.0]hexane-3-carbonyl}piperidin-1-yl)pyridin-3-yl]piperidine-2,6-dione]	
< 100	> 85	CC(C)n1cnc2cc(-c3ccc4c(c3)N([C@H]3C[C@@H](N5CCCCC5)C3)C(=O)C43CCN(C(=O)C4(C(F)F)CCN(C(=O)C5CCN(c6ccc(C7CCC(=O)NC7=O)cn6)CC5)CC4)CC3)nc(NC3CC3)c21 (mixture of isomers) [Example 276, (3RS)-3-(6-{4-[4-({6-[4-(cyclopropylamino)-3-(propan-2-yl)-3H-imidazo[4,5-c]pyridin-6-yl]-2-oxo-1-[(1S,3S)-3-(piperidin-1-yl)cyclobutyl]-1,2-dihydrospiro[indole-3,4′-piperidin]-1′-yl}carbonyl)-4-(difluoromethyl)piperidine-1-carbonyl]piperidin-1-yl}pyridin-3-yl)piperidine-2,6-dione]	
< 100	70 to 85	CC(C)n1cnc2cc(-c3ccc4c(c3)N([C@H]3C[C@@H](N5CCCCC5)C3)C(=O)C43CCN(C(=O)C4CCN(C(=O)CC5CCN(c6ccc(C7CCC(=O)NC7=O)cn6)CC5)CC4)CC3)nc(Nc3ccccc3F)c21 (stereo partly drawn) [Example 92, 3-(6-(4-(2-(4-(6-(4-((2-fluorophenyl)amino)-3-isopropyl-3H-imidazo[4,5-c]pyridin-6-yl)-2-oxo-1-((1S,3S)-3-(piperidin-1-yl)cyclobutyl)spiro[indoline-3,4′-piperidine]-1′-carbonyl)piperidin-1-yl)-2-oxoethyl)piperidin-1-yl)pyridin-3-yl)piperidine-2,6-dione]	

SMILES	DC50 [nM]	Dmax [1] [%]	Dmax Category [1]
CC(C)n1cnc2cc(-c3ccc4c(c3)N([C@H]3C[C@@H](N5C6COCC5C6)C3)C(=O)C43CCN(C(=O)C4(C)CCN(C(=O)C5CCN(c6ccc(C7CCC(=O)NC7=O)cn6)CC5)CC4)CC3)nc(NC3CC3)c21 (mixture of isomers) [Example 218, (3RS)-3-(6-{4-[4-({6-[4-(cyclopropylamino)-3-(propan-2-yl)-3H-imidazo[4,5-c]pyridin-6-yl]-2-oxo-1-[(1S,3S)-3-{3-oxa-6-azabicyclo[3.1.1]heptan-6-yl}cyclobutyl]-1,2-dihydrospiro[indole-3,4′-piperidin]-1′-yl}carbonyl)-4-methylpiperidine-1-carbonyl]piperidin-1-yl}pyridin-3-yl)piperidine-2,6-dione]	100 to 500	50 to 70	
CC(C)n1cnc2cc(-c3ccc4c(c3)N([C@H]3C[C@@H](N5CCCCC5)C3)C(=O)C43CCN(C(=O)[C@@H]4C[C@H]5CC[C@@H](C4)N5C(=O)C4CCN(c5ccc(C6CCC(=O)NC6=O)cn5)CC4)CC3)nc(NC3CC3)c21 (mixture of isomers) [Example 286, (3SR)-3-(6-{4-[(1S,3R,5RS)-3-({6-[4-(cyclopropylamino)-3-(propan-2-yl)-3H-imidazo[4,5-c]pyridin-6-yl]-2-oxo-1-[(1S,3S)-3-(piperidin-1-yl)cyclobutyl]-1,2-dihydrospiro[indole-3,4′-piperidin]-1′-yl}carbonyl)-8-azabicyclo[3.2.1]octane-8-carbonyl]piperidin-1-yl}pyridin-3-yl)piperidine-2,6-dione]	< 100	70 to 85	
CC(C)n1cnc2cc(-c3ccc4c(c3)N([C@H]3C[C@@H](N5CCCCC5)C3)C(=O)C43CCN(C(=O)C4(C)CCN(C(=O)C5CCN(c6ccc([C@H]7CCC(=O)NC7=O)cn6)CC5)CC4)CC3)nc(NC3CC3)c21 [Example 213, (3R)-3-(6-{4-[4-({6-[4-(cyclopropylamino)-3-(propan-2-yl)-3H-imidazo[4,5-c]pyridin-6-yl]-2-oxo-1-[(1S,3S)-3-(piperidin-1-yl)cyclobutyl]-1,2-dihydrospiro[indole-3,4′-piperidin]-1′-yl}carbonyl)-4-methylpiperidine-1-carbonyl]piperidin-1-yl}pyridin-3-yl)piperidine-2,6-dione]	< 100		B (B: >70%-<85%)
